Test results from patent US5378689A, “Peptides having renin inhibitory activity, their preparation and use” (Sankyo Company, Limited, priority 1989, dated 1995).

Each molecule was assayed against T1, human renin (Homo sapiens, UniProt P00797) (assay: Inhibition of renin activity (human renin, sheep angiotensinogen, remaining angiotensin I assayed)). Conditions: 1×10^-7 M test compound, pH 7.3, 37° C., 10 minutes, mean of 3 or 4 experiments.
T1 sequence (P00797 67-406): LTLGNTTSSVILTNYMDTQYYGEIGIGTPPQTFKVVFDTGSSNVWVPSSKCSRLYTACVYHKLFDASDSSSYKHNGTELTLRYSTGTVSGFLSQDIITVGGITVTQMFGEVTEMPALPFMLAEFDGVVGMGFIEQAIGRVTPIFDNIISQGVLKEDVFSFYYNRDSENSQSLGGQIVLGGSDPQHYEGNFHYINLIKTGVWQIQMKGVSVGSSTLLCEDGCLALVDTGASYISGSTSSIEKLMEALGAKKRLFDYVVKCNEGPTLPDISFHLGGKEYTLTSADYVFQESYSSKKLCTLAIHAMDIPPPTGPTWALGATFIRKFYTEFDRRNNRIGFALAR
Format: biochemical
Procedure: The ability of various compounds of the invention to inhibit the activity of renin was determined according to the following method, which follows essentially the procedure of Kokubu et al. [Hypertension, 5, 191-197 (1983)].
Specifically, each test compound was dissolved in 60% v/v aqueous ethanol. Human renin activity in the presence and absence of each compound was measured using sheep angiotensinogen. The total volume of 1 ml of assay mixture contained 0.1 mole/liter phosphate buffer (pH 7.3), human renin (equivalent to 0.5 ng angiotensin I per ml per minute), sheep angiotensinogen (equivalent to 200 ng angiotensin I), 1×10^-7 M of the test compound, 6% v/v ethanol and angiotensinase inhibitors (10 mmole/liter sodium ethylenediaminetetraacetate and 3.4 mmole/liter 8-hydroxyquinoline). The mixture was allowed to react for 10 minutes at 37° C., and then the reaction was stopped by placing the reaction tube in a boiling water bath for 5 minutes. The mixture was then centrifuged and the supernatant (0.05-0.1 ml) was used to assay remaining angiotensin I.
An identical experiment was carried out, as a control, except that the test compound was omitted. From the values obtained were calculated the % inhibition of renin activity achieved by each test compound. The results are shown in the following Table 2, in which the compounds of the invention are identified by the numbers of the Examples given hereafter in which are described their preparation. The values given are the mean of 3 or 4 experiments.

| Compound | Inhibitory activity (%) Against Human Renin (1 × 10^-7 M) [%] |
| --- | --- |
| CCCCNC(=O)[C@@H](C[C@H](O)[C@H](CC1CCCCC1)NC(=O)[C@H](Cc1cscn1)NC(=O)[C@@H](CC(=O)N1CCOCC1)Cc1ccc(OC)cc1)C(C)C [Example 4] | 96.9 |
| CCCCNC(=O)[C@H](C)C[C@H](O)[C@H](CC1CCCCC1)NC(=O)[C@H](Cc1cscn1)NC(=O)[C@@H](CC(=O)N1CCOCC1)Cc1ccccc1 [Example 6] | 96.1 |

Second part, the molecule after the results:

| Inhibitory activity (%) Against Human Renin (1 × 10^-7 M) [%] | Compound |
| --- | --- |
| 95.7 | CNC(=O)[C@H](C)C[C@H](O)[C@H](CC1CCCCC1)NC(=O)[C@H](Cc1cscn1)NC(=O)[C@@H](CC(=O)N(C)Cc1ccccc1)Cc1ccccc1 [Example 14, (2R, 4S, 5S )-5-{N-[2(R)-Benzyl-3-(N-benzyl-N-methylaminocarbonyl)propionyl]-3-(4-thiazolyl)-L-alanyl}-amino-6-cyclohexyl-4-hydroxy-2,N-dimethylhexanamide] |
| 96.2 | CCCCNC(=O)[C@H](C)C[C@H](O)[C@H](CC1CCCCC1)NC(=O)[C@H](Cc1cscn1)NC(=O)[C@@H](CC(=O)N(C)Cc1ccccc1)Cc1ccccc1 [Example 8, (2R, 4S, 5S)-5-{N-[2(R)-Benzyl-3-(N-benzyl-N-methylaminocarbonyl)propionyl]-3-(4-thiazolyl)-L-alanyl}-amino-N-butyl-6-cyclohexyl-4-hydroxy-2-methylhexanamide] |

Same assay, conditions: 1×10^-7 M test compound, pH 7.3, 37° C., 10 minutes, mean of 3 or 4 experiments, read-out: Inhibitory activity (%) Against Human Renin (1 × 10^-7 M)

| Compound | inhibition at 0.1 µM [%] |
| --- | --- |
| CCCCNC(=O)[C@@H](C[C@H](O)[C@H](CC1CCCCC1)NC(=O)[C@H](Cc1cscn1)NC(=O)[C@@H](CC(=O)N1CCOCC1)Cc1ccccc1)C(C)C [Example 2, (2S, 4S, 5S)-5-{N-[2(R)-Benzyl-3-(morpholinocarbonyl)-propionyl]-3-(4-thiazolyl)-L-alanyl}amino-N-butyl-6-cyclohexyl-4-hydroxy-2-isopropylhexanamide] | 96 |
| CNC(=O)[C@@H](C[C@H](O)[C@H](CC1CCCCC1)NC(=O)[C@H](Cc1cscn1)NC(=O)[C@@H](CC(=O)N1CCOCC1)Cc1ccccc1)C(C)C [Example 1, (2S, 4S, 5S)-5-{N-[2(R)-Benzyl-3-(morpholinocarbonyl)-propionyl]-3-(4-thiazolyl)-L-alanyl}amino-6-cyclohexyl-4-hydroxy-2-isopropyl-N-methylhexanamide] | 95.2 |
| CCCCNC(=O)[C@H](C)C[C@H](O)[C@H](CC1CCCCC1)NC(=O)[C@H](Cc1cscn1)NC(=O)[C@@H](CC(=O)N(C)Cc1ccccc1)Cc1ccc(OC)cc1 [Example 11, (2R, 4S, 5S)-N-Butyl-6-cyclohexyl-4-hydroxy-5-{N-[2(R)-(4-methoxybenzyl)-3-(N-benzyl-N-methylaminocarbonyl)-propionyl]-3-(4-thiazolyl)-L-alanyl}amino-2-methylhexanamide] | 91.6 |
| CCCCNC(=O)[C@@H](C[C@H](O)[C@H](CC1CCCCC1)NC(=O)[C@H](Cc1cscn1)NC(=O)[C@@H](CC(=O)N(C)Cc1ccccc1)Cc1ccccc1)C(C)C [Example 16, (2S, 4S, 5S)-5-{N-[2(R)-Benzyl-3-(N-benzyl-N-methylaminocarbonyl)propionyl]-3-(4-thiazolyl)-L-alanyl}amino-N-butyl-6-cyclohexyl-4-hydroxy-2-isopropylhexanamide] | 94.8 |

Next, values leading:

| inhibition at 0.1 µM [%] | Compound |
| --- | --- |
| 95.6 | CNC(=O)[C@H](C)C[C@H](O)[C@H](CC1CCCCC1)NC(=O)[C@H](Cc1cscn1)NC(=O)[C@@H](CC(=O)N1CCOCC1)Cc1ccccc1 [Example 5, (2R, 4S, 5S)-5-{N-[2(R)-Benzyl-3-(morpholinocarbonyl)-propionyl]-3-(4-thiazolyl)-L-alanyl}amino-6-cyclohexyl-4-hydroxy-2,N-dimethylhexanamide] |
| 93.1 | CNC(=O)[C@@H](C[C@H](O)[C@H](CC1CCCCC1)NC(=O)[C@H](Cc1cscn1)NC(=O)[C@@H](CC(=O)N1CCOCC1)Cc1ccc(OC)cc1)C(C)C [Example 3, (2S, 4S, 5S)-5-{N-[2(R)-(4-Methoxybenzyl)-3-(morpholinocarbonyl)propionyl]-3-(4-thiazolyl)-L-alanyl}amino-6-cyclohexyl-4-hydroxy-2-isopropyl-N-methylhexanamid] |
